{"source": "ChEMBL document CHEMBL6096719", "about": "“Kidney Targeting Smart Antibiotic Discovery: Multimechanism Pleuromutilins for Pyelonephritis Therapy” (J Med Chem, 2025)", "key": {"[1]": {"test": "Cmax in Sprague-Dawley rat at 10 mg/kg, po", "type": "ADME, organism-based", "conditions": "in vivo"}, "[2]": {"test": "Observed AUC (0 to infinity) in Sprague-Dawley rat at 10 mg/kg, po", "type": "ADME, organism-based", "conditions": "in vivo"}, "Staphylococcus aureus [3]": {"test_system": "Staphylococcus aureus", "test": "Antibiofilm activity against methicillin-resistant Staphylococcus aureus ATCC33591 assessed as eradication of biofilms at 0.5 ug/ml incubated for 4 hrs by field emission scanning electron microscopy", "type": "functional, organism-based", "conditions": "dose 0.5 µg/ml"}, "[4]": {"test": "Cmax in Sprague-Dawley rat at 5 mg/kg, iv", "type": "ADME, organism-based", "conditions": "in vivo"}, "Staphylococcus aureus [5]": {"test_system": "Staphylococcus aureus", "test": "Antibacterial activity against methicillin-resistant Staphylococcus aureus 206 assessed as inhibition of bacterial growth incubated for 24 hrs by broth microdilution method", "type": "functional"}, "Staphylococcus aureus [6]": {"test_system": "Staphylococcus aureus", "test": "Antibacterial activity against methicillin-resistant Staphylococcus aureus ATCC33591 infected in systemic intraperitoneal infection Kunming mouse model assessed as increase in animal's survival rate at 20 mg/kg, ip treated at 1 hr post-infection and measured for 7 days", "type": "functional, organism-based", "conditions": "time 7.0 day"}, "[7]": {"test_system": "Mycoplasmoides pneumoniae", "test": "Anti-mycoplasma activity against Mycoplasma pneumoniae M129 ATCC29342 assessed as inhibition of bacterial growth incubated for 3 to 5 days by broth microdilution method", "type": "functional", "conditions": "time 3-5 day"}, "Mesomycoplasma hyorhinis": {"test_system": "Mesomycoplasma hyorhinis", "test": "Anti-mycoplasma activity against Mycoplasma hyorhinis BTS-7 NCTC10130 assessed as inhibition of bacterial growth incubated for 3 to 5 days by broth microdilution method", "type": "functional", "conditions": "time 3-5 day"}, "Cell membrane [8]": {"test_system": "Cell membrane", "test": "Disruption of cell membrane in Escherichia coli ATCC25922 assessed as induction of cell death by measuring increase in propidium iodide fluorescence intensity at 0.5 ug/ml incubated for 2 hrs by bright field microscopy", "type": "subcellular", "conditions": "dose 0.5 µg/ml"}, "Staphylococcus aureus [9]": {"test_system": "Staphylococcus aureus", "test": "Antibacterial activity against methicillin-resistant Staphylococcus aureus 575 assessed as inhibition of bacterial growth incubated for 24 hrs by broth microdilution method", "type": "functional"}, "Cell membrane [10]": {"test_system": "Cell membrane", "test": "Disruption of cell membrane in methicillin-resistant Staphylococcus aureus ATCC33591 assessed as induction of cell death by measuring increase in propidium iodide fluorescence intensity at 0.5 ug/ml incubated for 2 hrs by fluorescence field microscopy", "type": "subcellular", "conditions": "dose 0.5 µg/ml"}, "Staphylococcus aureus [11]": {"test_system": "Staphylococcus aureus", "test": "Antibacterial activity against methicillin-resistant Staphylococcus aureus 596 assessed as inhibition of bacterial growth incubated for 24 hrs by broth microdilution method", "type": "functional"}, "Cell membrane [12]": {"test_system": "Cell membrane", "test": "Disruption of cell membrane in Escherichia coli ATCC25922 assessed as leakage of bacterial cell contents by measuring increase in conductivity of bacterial solution at MIC measured for 6 hrs by conductivity meter analysis"}, "Escherichia coli [13]": {"test_system": "Escherichia coli", "test": "Antibacterial activity against Escherichia coli ATCC25922 infected in pyelonephritis C57BL/6 mouse model assessed as decrease in IL-1 beta level in kidney at 3 to 10 mg/kg, iv qd for 3 days administered at 2 days post-infection by ELISA", "type": "functional, organism-based", "conditions": "dose 3-10 mg/kg, time 3.0 day"}, "Staphylococcus aureus [14]": {"test_system": "Staphylococcus aureus", "test": "Antibacterial activity against methicillin-resistant Staphylococcus aureus 222 assessed as inhibition of bacterial growth incubated for 24 hrs by broth microdilution method", "type": "functional"}, "Cell membrane [15]": {"test_system": "Cell membrane", "test": "Disruption of cell membrane in methicillin-resistant Staphylococcus aureus ATCC33591 assessed as leakage of bacterial cell contents by measuring increase in conductivity of bacterial solution at MIC measured for 6 hrs by conductivity meter analysis"}, "Escherichia coli [16]": {"test_system": "Escherichia coli", "test": "Antibiofilm activity against Escherichia coli ATCC25922 assessed as eradication of preformed biofilms incubated for 24 hrs with preformed biofilms by crystal violet staining based analysis", "type": "functional, organism-based", "conditions": "dose 0.125-0.5 µg/ml"}, "Escherichia coli [17]": {"test_system": "Escherichia coli", "test": "Antibiofilm activity against Escherichia coli ATCC25922 assessed as eradication of biofilms at 0.5 ug/ml incubated for 4 hrs by field emission scanning electron microscopy", "type": "functional, organism-based", "conditions": "dose 0.5 µg/ml"}, "Klebsiella pneumoniae": {"test_system": "Klebsiella pneumoniae", "test": "Antibacterial activity against multidrug-resistant Klebsiella pneumoniae 893 assessed as inhibition of bacterial growth incubated for 24 hrs by broth microdilution method", "type": "functional"}, "Salmonella enterica": {"test_system": "Salmonella enterica", "test": "Antibacterial activity against Salmonella enterica ATCC 14028 assessed as inhibition of bacterial growth incubated for 24 hrs by broth microdilution method", "type": "functional"}, "Cell membrane [18]": {"test_system": "Cell membrane", "test": "Disruption of cell membrane in methicillin-resistant Staphylococcus aureus ATCC33591 assessed as decrease in intracellular pH at 0.125 ug/ml incubated for 30 mins by cFDA-SE probe based fluorescence analysis", "conditions": "dose 0.125 µg/ml"}, "[19]": {"test": "Observed apparent volume of distribution in Sprague-Dawley rat at 5 mg/kg, iv", "type": "ADME, organism-based", "conditions": "in vivo, read-out: Vz"}, "Pseudomonas aeruginosa": {"test_system": "Pseudomonas aeruginosa", "test": "Antibacterial activity against multidrug-resistant Pseudomonas aeruginosa 126 assessed as inhibition of bacterial growth incubated for 24 hrs by broth microdilution method", "type": "functional"}, "[20]": {"test_system": "Mesomycoplasma hyopneumoniae", "test": "Anti-mycoplasma activity against Mycoplasma hyopneumoniae J NCTC10110 assessed as inhibition of bacterial growth incubated for 6 to 7 days by broth microdilution method", "type": "functional", "conditions": "time 6-7 day"}, "Cell membrane [21]": {"test_system": "Cell membrane", "test": "Disruption of cell membrane in methicillin-resistant Staphylococcus aureus ATCC33591 assessed as dissipation of membrane potential at 0.125 to 0.5 ug/ml incubated for 30 mins by DiBAC4(3) probe based fluorescence spectrophotometry", "conditions": "dose 0.125-0.5 µg/ml"}, "Staphylococcus aureus [22]": {"test_system": "Staphylococcus aureus", "test": "Antibacterial activity against methicillin-resistant Staphylococcus aureus ATCC 33591 assessed as inhibition of bacterial growth incubated for 24 hrs by broth microdilution method", "type": "functional"}, "[23]": {"test": "Tmax in Sprague-Dawley rat at 10 mg/kg, po", "type": "ADME, organism-based", "conditions": "in vivo"}, "Staphylococcus aureus [24]": {"test_system": "Staphylococcus aureus", "test": "Antibacterial activity against methicillin-resistant Staphylococcus aureus ATCC33591 infected in systemic intraperitoneal infection Kunming mouse model assessed as decrease in inflammation and neutrophil infiltration in liver at 5 mg/kg, ip treated at 1 hr post-infection and measured after 7 days by Hematoxylin-Eosin staining based analysis", "type": "functional, organism-based", "conditions": "time 7.0 day"}, "[25]": {"test": "AUC (0 to 24 hrs) in Sprague-Dawley rat at 5 mg/kg, iv", "type": "ADME, organism-based", "conditions": "in vivo"}, "[26]": {"test": "Drug uptake in Sprague-Dawley rat kidney at 5 mg/kg, iv measured for 6 hrs by LC-MS/MS analysis", "type": "ADME, organism-based", "conditions": "in vivo"}, "[27]": {"test": "Observed apparent volume of distribution during terminal phase in Sprague-Dawley rat at 10 mg/kg, po", "type": "ADME, organism-based", "conditions": "in vivo, read-out: Vz/F_obs"}, "Escherichia coli [28]": {"test_system": "Escherichia coli", "test": "Antibacterial activity against Escherichia coli ATCC25922 infected in pyelonephritis C57BL/6 mouse model assessed as decrease in MPO activity in kidney at 3 to 10 mg/kg, iv qd for 3 days administered at 2 days post-infection", "type": "functional, organism-based", "conditions": "dose 3-10 mg/kg, time 3.0 day"}, "Staphylococcus aureus [29]": {"test_system": "Staphylococcus aureus", "test": "Antibacterial activity against methicillin-resistant Staphylococcus aureus ATCC33591 infected in systemic intraperitoneal infection Kunming mouse model assessed as decrease in inflammation, neutrophil infiltration and disordered spleen structure at 5 mg/kg, ip treated at 1 hr post-infection and measured after 7 days by Hematoxylin-Eosin staining based analysis", "type": "functional, organism-based", "conditions": "time 7.0 day"}, "Escherichia coli [30]": {"test_system": "Escherichia coli", "test": "Antibacterial activity against Escherichia coli ATCC 25922 assessed as inhibition of bacterial growth incubated for 24 hrs by broth microdilution method", "type": "functional"}, "Staphylococcus aureus [31]": {"test_system": "Staphylococcus aureus", "test": "Antibacterial activity against methicillin-resistant Staphylococcus aureus ATCC33591 infected in systemic intraperitoneal infection Kunming mouse model assessed as increase in animal's survival rate at 5 mg/kg, ip treated at 1 hr post-infection and measured on day 7", "type": "functional", "conditions": "ATCC33591, 168 h, time 7 day"}, "[32]": {"test_system": "Mesomycoplasma hyopneumoniae", "test": "Anti-mycoplasma activity against Mycoplasma hyopneumoniae MH-LH assessed as inhibition of bacterial growth incubated for 6 to 7 days by broth microdilution method", "type": "functional", "conditions": "time 6-7 day"}}, "note": "Calls of active or inactive are those of the source. The rule behind the calls is not given here."}
{"smiles": "C=C[C@]1(C)C[C@@H](OC(=O)CSc2nc3cc[n+](Cc4ccc(C)cc4)cc3[nH]2)[C@]2(C)[C@H](C)CC[C@]3(CCC(=O)[C@H]32)[C@@H](C)[C@@H]1O.[Br-]", "values": [{"measurement": "Cmax", "setting": "[1]", "result": 6210, "unit": "ng/mL"}, {"measurement": "AUC(0-inf)", "setting": "[2]", "result": 15800, "unit": "ng·h/mL"}, {"measurement": "Activity", "setting": "Staphylococcus aureus [3]", "result": "Active; Almost Complete Eradication Of Bacteria Observed"}, {"measurement": "Cmax", "setting": "[4]", "result": 25600, "unit": "ng/mL"}, {"measurement": "MIC", "setting": "Staphylococcus aureus [5]", "result": 1, "unit": "µg/mL"}, {"measurement": "Activity", "setting": "Staphylococcus aureus [6]", "result": "Active; Slight Decrease In Activity Compared To Lower Dose Of Drug Concentration Observed; Diminished Therapeutic Effects To Drug At Higher Concentrations Observed"}, {"measurement": "MIC", "setting": "[7]", "result": "< 0.008", "unit": "µg/mL"}, {"measurement": "MIC", "setting": "Mesomycoplasma hyorhinis", "result": "< 0.04", "unit": "µg/mL"}, {"measurement": "Activity", "setting": "Cell membrane [8]", "result": "Active"}, {"measurement": "MIC", "setting": "Staphylococcus aureus [9]", "result": 1, "unit": "µg/mL"}, {"measurement": "Activity", "setting": "Cell membrane [10]", "result": "Active"}, {"measurement": "MIC", "setting": "Staphylococcus aureus [11]", "result": 2, "unit": "µg/mL"}, {"measurement": "Activity", "setting": "Cell membrane [12]", "result": "Active"}, {"measurement": "Activity", "setting": "Escherichia coli [13]", "result": "Dose-dependent-effect"}, {"measurement": "MIC", "setting": "Staphylococcus aureus [14]", "result": 4, "unit": "µg/mL"}, {"measurement": "Activity", "setting": "Cell membrane [15]", "result": "Active"}, {"measurement": "Activity", "setting": "Escherichia coli [16]", "result": "Dose-dependent-effect"}, {"measurement": "Activity", "setting": "Escherichia coli [17]", "result": "Active; Almost Complete Eradication Of Bacteria Observed"}, {"measurement": "MIC", "setting": "Klebsiella pneumoniae", "result": 2, "unit": "µg/mL"}, {"measurement": "MIC", "setting": "Salmonella enterica", "result": "< 1", "unit": "µg/mL"}, {"measurement": "Activity", "setting": "Cell membrane [18]", "result": "Active"}, {"measurement": "Vd", "setting": "[19]", "result": 0.511, "unit": "L/kg"}, {"measurement": "MIC", "setting": "Pseudomonas aeruginosa", "result": 4, "unit": "µg/mL"}, {"measurement": "MIC", "setting": "[20]", "result": "< 0.04", "unit": "µg/mL"}, {"measurement": "Activity", "setting": "Cell membrane [21]", "result": "Active"}, {"measurement": "MIC", "setting": "Staphylococcus aureus [22]", "result": "< 1", "unit": "µg/mL"}, {"measurement": "Tmax", "setting": "[23]", "result": 30, "unit": "min"}, {"measurement": "Activity", "setting": "Staphylococcus aureus [24]", "result": "Active; Nearly Restoration Of Normal Histology Observed"}, {"measurement": "AUC(0-t)", "setting": "[25]", "result": 16200, "unit": "ng·h/mL"}, {"measurement": "Drug uptake", "setting": "[26]", "result": "Active"}, {"measurement": "Vd/F", "setting": "[27]", "result": 1.43, "unit": "L/kg"}, {"measurement": "Activity", "setting": "Escherichia coli [28]", "result": "Active"}, {"measurement": "Activity", "setting": "Staphylococcus aureus [29]", "result": "Active; Nearly Restoration Of Normal Histology Observed"}, {"measurement": "MIC", "setting": "Escherichia coli [30]", "result": "< 1", "unit": "µg/mL"}, {"measurement": "survival at 5 mg/kg", "setting": "Staphylococcus aureus [31]", "result": 80, "unit": "%"}, {"measurement": "MIC", "setting": "[32]", "result": "< 0.04", "unit": "µg/mL"}]}
